Test results from patent publication US20120129822A1, “COMPOSITION CONTAINING DIOSGENIN AND USE THEREOF TO IMPROVE AT LEAST ONE OF COGNITIVE DEFICITS ASSOCIATED WITH MENOPAUSAL SYNDROME” (TL & GM Chemical Company, priority 2010, published 2012).
“Also recorded” adds a separate entry of the source.

How the values were obtained:
[1] = test system: OVX rats having clinical signs of osteoporosis; settings: sustained delivery; cited from earlier work
OVX rats with anxiety = assay: Learned helplessness test (day-2 active avoidance test, shuttle box), OVX rats with anxiety; format: in vivo, female Wistar rats; settings: 23 days; for Avoidance response (number) / Failure response (number) / Escape response (number): 16 trials, mean±SEM
Procedure: (§1) Three daily dosages of diosgenin, i.e., 10, 50, or 100 mg/kg, were administered to the experimental animals in the following experiments. A proper amount of diosgenin (Sigma, USA, required for formulating a respective one of the three daily dosages) was mixed with 1 g of toast or raw dough (prepared by mixing flour and water in a ratio of 2:1 (wt/wt)), thereby forming a diosgenin-containing pellet. The experimental animals were orally administered with the diosgenin-containing pellets, starting about 4 weeks after ovariectomy.
(§2) A shuttle box used in Example 1 (AccuScan, USA) is composed of two equal compartments. Each of the compartments has a grid floor made of stainless steel bars. The compartments are separated by a wall having a central door. Specifically, the central door can be closed to separate the two compartments, or can be opened to allow the experimental animals to move freely between the two compartments therethrough. A conditioned stimulus (CS, a stimulus consisting of a tone (75 db) and a light (250 lux) and lasting 3 seconds) and an unconditioned stimulus (UCS, an electric foot shock (0.5 mA) lasting a maximum of 10 seconds) were administered to the experimental animals from the shuttle box under control of a computer. The shuttle box was thoroughly cleaned using 20% ethanol and was subsequently thoroughly dried before each of the experimental animals was tested.
(§3) The OVX rats with and without anxiety, which were identified in the preceding section A, were respectively randomly subdivided into 4 groups including a control group and three experimental groups (respectively designated as diosgenin groups 1-3). The diosgenin-containing pellets (made using diosgenin and toast), which were prepared according to the method as described in the section entitled “2. Diosgenin-containing pellets” of the Experimental Materials, respectively comprised the three daily dosages of diosgenin (i.e., 10, 50, and 100 mg/kg), and were respectively administered to the OVX rats in diosgenin groups 1-3 daily. In other words, the daily dosage of diosgenin administered to the OVX rats in diosgenin group 1 was 10 mg/kg, the daily dosage of diosgenin administered to the OVX rats in diosgenin group 2 was 50 mg/kg, and the daily dosage of diosgenin administered to the OVX rats in diosgenin group 3 was 100 mg/kg. The toast without diosgenin was administered daily to the OVX rats in the control group. After 23 days of administration, the OVX rats in each group were subjected to the following learned helplessness test so as to investigate the effect of diosgenin on the learning ability of the OVX rats with and without anxiety under stress.
(§4) The learned helplessness test in this example was conducted substantially according to the methods as described in W. F. Wang et al. (2007), Chin. J. Physiol., 50:63-68 and Y. T. Lee et al. (2008), Neuroreport, 19:1243-1247, except for minor modifications. The learned helplessness test in this example is generally described as follows.
(§5) The respective OVX rat was placed in one of the two compartments of the shuttle box, and was allowed to explore the two compartments through the central door, which was opened, for 1 minute. Afterward, the central door was closed. The respective OVX rat was subjected to 40 trials of inescapable CS-UCS pairing. Specifically, each of the 40 trials of inescapable CS-UCS pairing consisted of a CS and a subsequent UCS, and a mean interval between the two successive trials of inescapable CS-UCS pairing was 60 seconds (the interval between the two successive trials of inescapable CS-UCS pairing ranged from 50 to 70 seconds).
(§6) The respective OVX rat was placed in one of the two compartments of the shuttle box, and was allowed to explore the two compartments through the central door, which was opened, for 1 minute. Subsequently, the respective OVX rat was subjected to 16 trials of escapable CS-UCS pairing. […]

OVX rats without anxiety = assay: Learned helplessness test (day-2 active avoidance test, shuttle box), OVX rats without anxiety; format: in vivo, female Wistar rats; settings: for Avoidance response (number) / Escape response (number) / Failure response (number): 23 days, 16 trials, mean±SEM
Procedure: as §1, §2, §3, §4, §5, §6

OVX rats = assay: Object recognition test in open box; format: in vivo, female Wistar rats
Procedure: Three daily dosages of diosgenin, i.e., 10, 50, or 100 mg/kg, were administered to the experimental animals in the following experiments. A proper amount of diosgenin (Sigma, USA, required for formulating a respective one of the three daily dosages) was mixed with 1 g of toast or raw dough (prepared by mixing flour and water in a ratio of 2:1 (wt/wt)), thereby forming a diosgenin-containing pellet. The experimental animals were orally administered with the diosgenin-containing pellets, starting about 4 weeks after ovariectomy. The open box is made of black polyvinyl plastics. Three objects, which are respectively designated as A1, A2, and A3, are identical in terms of size, color, shape, and material, and have no specific scents. Each of the objects A1, A2, A3 was placed on the bottom of the open box and was spaced apart from a respective one of three corners C1, C2, C3 of the open box by 21 cm (see FIG. 2(A)). The object A3 was later replaced with an object B different from the object A3 in terms of size, color, shape, and material, and having no specific scents (see FIG. 2(B)). Prior to an experiment, each of the objects A1, A2, A3, B was unfamiliar to the experimental animals. The open box and the objects A1, A2, A3, B were thoroughly cleaned using 20% ethanol, and were subsequently thoroughly dried before each of the experimental animals was tested. After the female Wistar rats were raised in the animal room for 4 weeks, the same were subjected to ovariectomy according to the method as described in the section, entitled “1. Ovariectomy”, of the General Experimental Procedure. On the 29th day after the surgery, the OVX rats were randomly divided into four groups including a control group (n=20) and three experimental groups (respectively designated as diosgenin group 1 (n=20), diosgenin group 2 (n=12), and diosgenin group 3 (n=19)). The diosgenin-containing pellets (made using diosgenin and raw dough), which were prepared according to the method as described in the section entitled “2. […]

OVX mice = settings: cited from earlier work
[2] = test system: breast cancer-burdened mice; settings: cited from earlier work
[3] = diosgenin group 1, 10 mg/kg daily oral, n=12
[4] = diosgenin group 2, 50 mg/kg daily oral, n=11
[5] = diosgenin group 3, 100 mg/kg daily oral, n=11
[6] = diosgenin group 1, 10 mg/kg daily oral, n=7
[7] = diosgenin group 2, 50 mg/kg daily oral, n=6
[8] = diosgenin group 3, 100 mg/kg daily oral, n=6

## C[C@]12CC[C@H](O)CC1=CC[C@@H]1[C@@H]2CC[C@]2(C)C(=O)CC[C@@H]12 [DHEA, dehydroepiandrosterone]
[1]
  Bone loss after ovariectomy: significantly reduced
  Side effects on other body organs: without inducing side effects on other body organs

## estrogen
[1]
  Bone loss after ovariectomy: significantly reduced
  Side effects on other body organs: without inducing side effects on other body organs

## C[C@@H]1CC[C@@]2(OC1)O[C@H]1C[C@H]3[C@@H]4CC=C5C[C@@H](O)CC[C@]5(C)[C@H]4CC[C@]3(C)[C@H]1[C@@H]2C [diosgenin]
OVX rats with anxiety; [3]
  Avoidance response (number): 2.5 ± 0.9 number
  Failure response (number): 4.2 ± 1.3 number
OVX rats with anxiety; diosgenin group 1, 10 mg/kg daily oral, n=12, p<0.05 vs control
  Escape response (number): 9.3 ± 1.3 number
OVX rats with anxiety; [4]
  Avoidance response (number): 1.3 ± 0.5 number
  Escape response (number): 10.4 ± 1.4 number
  Failure response (number): 4.4 ± 1.4 number
OVX rats with anxiety; [5]
  Avoidance response (number): 1.4 ± 0.4 number
  Escape response (number): 13.2 ± 0.6 number
  Failure response (number): 1.4 ± 0.5 number
OVX rats with anxiety; oral diosgenin-containing pellets
  Learning ability of the OVX rats with anxiety (result in words): capable of significantly improving the learning ability of the OVX rats with anxiety
OVX rats without anxiety; [6]
  Avoidance response (number): 1.3 ± 0.6 number
  Escape response (number): 11.7 ± 1.4 number
  Failure response (number): 3.0 ± 1.6 number
OVX rats without anxiety; [7]
  Avoidance response (number): 1.2 ± 0.4 number
  Escape response (number): 13.8 ± 0.5 number
  Failure response (number): 0.7 ± 0.3 number
OVX rats without anxiety; [8]
  Avoidance response (number): 2.5 ± 0.8 number
  Escape response (number): 12.5 ± 1.1 number
  Failure response (number): 0.8 ± 0.7 number
OVX rats without anxiety; diosgenin groups 1-3 (10, 50, 100 mg/kg daily oral)
  Number of avoidance response and number of escape response versus control group (result in words): not obviously different from those regarding the OVX rats in the control group
OVX rats; diosgenin group 2, 50 mg/kg daily oral, 26 days, FIG. 3
  Exploration time spent on object B in the third trial, comparison among groups (result in words): the longest
OVX rats; each of diosgenin groups 1-3 (10, 50, 100 mg/kg daily oral, 26 days), FIG. 3
  Exploration time spent on object B in the third trial versus object A3 in the second trial (result in words): longer than exploration time spent on object A3 in the second trial
OVX rats; oral diosgenin-containing pellets, 26 days
  Ability to memorize a familiar object and to recognize a difference between familiar and novel object (result in words): able to improve the ability to memorize a familiar object and the ability to recognize a difference between the familiar object and a novel object; also recorded: able to improve the ability to memorize a familiar object, and the ability to recognize a difference between the familiar object and a novel object
OVX mice; animal model of menopause
  Epidermal thickness of OVX mice: capable of improving epidermal thickness
  Keratinocyte proliferation in aged skin: able to restore keratinocyte proliferation in aged skin
OVX mice
  Degree of fat accumulation: without altering the degree of fat accumulation
[2]
  Tumor growth: does not accelerate the tumor growth
[1]
  Bone loss after ovariectomy: significantly reduced
  Side effects on other body organs: without inducing side effects on other body organs
